From publication PMC5095062, “The novel choline kinase inhibitor ICL-CCIC-0019 reprograms cellular metabolism and inhibits cancer cell growth” (Oncotarget, 2016) come the findings set out here.

Like-named read-outs stand apart in the source and are kept apart here.

Test [1] concerns NCI-60 panel of cell lines. As to the kind of experiment: NCI-60 screen (whole panel). Type of test: cell-based. The settings on record: Homo sapiens. From the text:
The compound was then screened against a larger panel of cancer cell lines of diverse histopathologic origin, the NCI-60 screen. […] Mining of publicly available Cancer Genome Atlas (TCGA) expression data identified CHKA amplification and/or mRNA upregulation in 11% of breast, 5–10% of lung, 8% of ovarian, 7% of colorectal and 5% of prostate cancers. Furthermore, CHKA mRNA expression is higher in multiple tumor types compared to normal tissue (Supplementary Figure S1D). The gene was rarely mutated or deleted (0–2.5% mutation rate and < 1% deletion among all tested cancer types). The consistently high expression in a wide variety of tumor types highlights the relevance of CHKA in malignancy and role as a therapeutic target.

The target of the next test is T1, CHKA (Homo sapiens, UniProt P35790).
T1 construct: endogenous in cells; host or cells: HCT116
As to the kind of experiment: CHKA dimer integrity by BN-PAGE. Type of test: cell-based. The settings on record: HCT116 cells, 24 hours. The procedure: Native gels were run using blue native polyacrylamide gel electrophoresis (BN-PAGE) method. Cell homogenates were obtained by addition of passive lysis buffer (Promega) containing protease and phosphatase inhibitors to cell pellets and incubation for 30 minutes on a tube rotor at 4°C. Samples were cleared by centrifugation for 10 minutes at 12 000 × g at 4°C. Samples were prepared by mixing 30 μg protein with an equal volume of 2 × sample buffer (62.5 mM Tris-HCl, pH 6.8, 25% (v/v) glycerol, 0.01% (w/v) bromophenol blue, 0.02% (w/v) Coomassi Blue G250; all from Sigma-Aldrich). As control, D49N CHKA2 [58] was either applied under native conditions (100 ng diluted to 10 μL in 100 mM Tris buffer pH 7.4 added to 10 μL 2 × sample buffer) or denatured using SDS [100 ng diluted in RIPA buffer, 1 × NuPAGE LDS sample buffer and 1 × sample reducing agent (both Life Technologies)] and incubated at 70°C for 10 minutes. Samples were resolved on 4–15% mini-protean TGX gels using 1 × native running buffer (25 mM Tris, 192 mM glycine, pH 8.3). The cathode buffer was additionally supplemented with 750 μL Coomassi Blue G250 [final concentration ca. 0.04% (w/v)]. Membranes were transferred and probed as described above.

Test [2] deals with HCT116 xenografts. As to the kind of experiment: Antitumor activity in HCT116 xenograft model. Type of test: in vivo, BALB/c nude mice. The settings on record: 5 mg/kg i.p. once a day on days 1–3, 11 day recovery. On the procedure: All animal experiments were conducted in accordance with the United Kingdom Home Office Guidance on the Operation of The Animals (Scientific Procedures) Act 1986 Amendment Regulations 2012 and within the published guidelines for the welfare and use of animals in cancer research. Xenografts were established in female BALB/c nude mice aged 6–8 weeks (Harlan) by subcutaneous (s.c.) injection of 100 μL HCT116 cells (5 × 10^6 in PBS) on the back of mice. Tumor dimensions were frequently measured by calliper and volumes calculated by the following equation: volume (mm^3) = (π/6) × a × b × c, where a, b, and c represent 3 orthogonal axes of the tumor. When tumor volumes reached approximately 50–100 mm^3 (ca. 10 days post injection), mice were used for subsequent studies.

Test [3] deals with HCT116 xenografts. As to the kind of experiment: [18F]-D4-FCH PET imaging. The format is in vivo, BALB/c nude mice. From the text: Mice were anesthetized through isoflurane inhalation and scanned on a Siemens Multimodality Inveon small animal PET-CT scanner for [^18F]-D4-FCH PET studies using HCT116 xenografts. Low dose CT scans were first acquired (80 kVp, 0.5 mA, 220 degree rotation, 600 ms per degree exposure time, 80 μm reconstruction pixel size) for PET attenuation correction and anatomical reference. PET images were acquired following a bolus i.v. injection of approximately 3.7 MBq tracer in the tail vein. Dynamic emission scans were acquired in list mode format over 60 minutes. Data were sorted into 0.5 mm sinogram bins and 19 time frames for image reconstruction by filtered back projection (4 × 15 seconds, 4 × 60 seconds and 11 × 300 seconds). The Siemens Inveon Research Workplace software was used for visualization of radiotracer uptake. To define 3-dimensional regions of interest (ROI), 30 to 60-minute cumulative images of the dynamic were employed. Arterial input function was estimated by drawing ROIs over the center of the heart cavity using cumulative images from 0.25 to 2 minutes of the dynamic series, a method previously validated for use in rodents. The count densities were averaged for all ROIs at each time point to obtain time versus radioactivity curves (TAC). Tumor TACs were normalized to injected dose measured by a VDC-304 dose calibrator (Veenstra Instruments) and normalized uptake was expressed as percentage injected dose per mL tissue (NUV; %ID/mL).

The test system of another test is HCT116 cells. Nature of the test: TMRE mitochondrial membrane potential assay. The format is cell-based, human. The settings on record: 10 μM, 24 h. On the procedure:
HCT116 cells were cultured as above with indicated inhibitors and subject to the tetramethylrhodamine ethyl ester dye method (TMRE) membrane potential assay according to the manufacturers instruction (Abcam ab113852) prior to FACS analysis.

In another test the test system is A549 cells. As to the kind of experiment: Comparative antiproliferative activity. The format is cell-based, human. The procedure: Enzymatic kinase activity, [^3H]choline to [^3H]PCho conversion and growth inhibition assays was conducted as previously described. [^3H]choline incorporation into soluble and lipid fractions was determined by a pulse-chase experiment. HCT116 cells were seeded at a density of 3 × 10^5 cell per well into 12-well plates and incubated overnight. Cells were treated with 1 or 10 μM ICL-CCIC-0019 for 1 h and pulsed in presence of inhibitor with 18.5 kBq/mL [^3H]choline chloride in 500 μL for 1 additional h. Cells were briefly rinsed with RPMI and incubated with fresh, non-radioactive medium for 6 h. Metabolites were extracted as described elsewhere, but additionally the radioactivity of the choline-containing and chloroform (lipid-containing) fractions was measured. Uptake of radiolabeled metabolite-tracers was measured as described elsewhere. Antiproliferative activity was measured after 72 h continuous exposure to inhibitors by sulforhodamine B (SRB) assay as described elsewhere. Apoptosis was determined using Caspase 3/7 Glo assay (Promega) according to the manufacturer's instructions.

T1 sequence (P35790 whole entry): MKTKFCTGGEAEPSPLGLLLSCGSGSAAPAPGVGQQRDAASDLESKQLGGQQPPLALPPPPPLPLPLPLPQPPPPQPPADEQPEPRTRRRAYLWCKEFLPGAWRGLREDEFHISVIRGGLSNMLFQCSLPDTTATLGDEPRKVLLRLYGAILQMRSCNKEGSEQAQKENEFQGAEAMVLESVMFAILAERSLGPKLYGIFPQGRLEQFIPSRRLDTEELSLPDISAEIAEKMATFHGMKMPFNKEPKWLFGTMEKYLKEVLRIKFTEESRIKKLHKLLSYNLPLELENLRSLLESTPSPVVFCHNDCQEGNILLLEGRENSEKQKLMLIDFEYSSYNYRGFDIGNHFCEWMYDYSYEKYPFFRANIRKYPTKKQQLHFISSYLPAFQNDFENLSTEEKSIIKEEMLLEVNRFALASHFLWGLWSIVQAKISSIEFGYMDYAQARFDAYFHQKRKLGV

As a reminder, the GI50 is the concentration at which growth is held to half of that of the control. Consider `CN(C)c1cc[n+](CCCCCCCCCCCC[n+]2ccc(N(C)C)cc2)cc1` [ICL-CCIC-0019], for which the figures for the GI50 in test [1] (read-out: GI50 range across all cell lines) and in test [1] (read-out: median GI50 across all cell lines) were 0.0389 to 16.2 µM and 1.12 µM, respectively. Moreover, the CHKA enzyme dimerization entry at CHKA was “not compromised”. In the test on HCT116 xenografts [2], the antitumour activity result is reported as “potent antitumour activity”. Besides, the “[18F]-D4-FCH tumor uptake AUC0–60” value in the test with HCT116 xenografts [3] (6 hours after 10 mg/kg i.p. single dose) is 187.7 (%ID/mL)*min; in the test on HCT116 xenografts [3] (24 hours after 10 mg/kg i.p. single dose) it was 145.8 (%ID/mL)*min; in the test on HCT116 xenografts [3] (48 hours after 10 mg/kg i.p. single dose), 139.4 (%ID/mL)*min. Besides, the “TMRE-detectable mitochondrial membrane potential” value in the test on HCT116 cells is “decreased”. In the test on A549 cells, the “antiproliferative activity compared with CK37” value was “superior to CK37”. In addition, the “antiproliferative activity compared with MN58B” value with A549 cells was “equipotent to MN58B”.
